Drawing on PubChem BioAssay AID1259411 (Chemical Carcinogenesis Research Information System (CCRIS), 2018), this text covers carcinogen call for one compound.

The source made the active and inactive calls. How the calls were made is not given here.

The data set has as its system rodent carcinogenicity bioassays, tumor incidence. Put plainly: CCRIS carcinogenicity studies. Particulars: Species: Mouse, Route: Oral, Dose: 0, 100, 300, 1,000 ppm of 94.6-94.9% pure cyphenothrin for 104 wk, Dose: 0, 100, 300, 1,000 ppm of 94.6-94.9% pure cyphenothrin for 104 wk. The essentials: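 Archive of carcinogenicity, mutagenicity, tumor promotion and tumor inhibition results drawn from journals, NCI reports and other sources, expert-reviewed; covers 1985-2011 and is no longer updated.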

As to `CC(C)=CC1C(C(=O)OC(C#N)c2cccc(Oc3ccccc3)c2)C1(C)C` (configuration not stated), the carcinogen call by setting is: (Strain/Sex: B6C3F1/Female (80/group)) “inactive; negative (study details not presented by dpr evaluator)”; (Strain/Sex: B6C3F1/Male (80/group)) “inactive; negative (study details not presented by dpr evaluator)”.
